In US4554274A, “Nb Quaternary derivatives of ajmaline and isoajmaline, methods and intermediate products in the manufacture of their derivatives and method of using same and pharmaceutical compositions thereof” (priority 1979, dated 1985):
Where a name gives a salt, the structure may show the parent alone. Read-outs that look alike come from different tables or passages of the source.

Legend:
[1] = test system: male Wista rats (aconitine); assay: aconitine infusion in rats, heart rhythm disruption (Raschak); assay type: in vivo; conditions: 1/20th of the LD50, concurrent aconitine infusion, time difference vs control
Procedure: To determine the influence of the active ingredient on male Wista rats (weighing 280 to 350 g), infusion with aconitine according to the method of Raschak is carried out (M. Raschak, Arzneim. Forschung (Drug Research) 25 (4) (1975) pp. 639-641). The results are given as the difference (that is, the difference in time as Δ%) between the active substance and a control sample in bringing about a disruption of heart rhythms (extrasystolic (ES), ventricular tachicardiea (VT), chamber flutter (KF)). In the control sample the active ingredient is replaced by a vehicle such as isotonic NaCl-solution or solution medium. The administration of the active ingredient is in a dosage of 1/20th of the LD50 and a constant concurrent infusion per unit of time of aconitine.

male NMRI-mice = assay: minimum symptom dose (Campbell and Richter); assay type: in vivo; conditions: i.p., changes in behavior in 2 out of 3 mice
Procedure: The minimum symptom dose is determined in male NMRI-mice (body weight range 18-22 g) according to the procedure of Campbell and Richter (see D. E. S. Campbell and W. Richter, Acta Pharmacol. Toxicol. 25 (1967), pp. 345-363). The minimum symptom dose is defined as that dose in μmol/kg which after i.p. administration causes changes in behavior in 2 out of 3 mice. The minimum symptom dose is a measure for evaluations undesirable side effects.

isolated left atria = assay: functional refractory period (FRP) and contraction force (CF) in isolated left atria, double stimulus method of Govier; parameters: species or system female guinea pigs; conditions: for ratio between contraction force-reducing dose and functional refractory period-prolonging dose: CF/FRP, indication of therapeutic range, 18 min; for EC (FRP prolonged to 125%) / IC25: Cavia porcellus, 0.3 h, isolated left atria of guinea pig, 18 minutes after application; for EC (FRP prolonged to 125%): read-out: concentration prolonging functional refractory period (FRP) to 125% of starting value; for IC25: read-out: concentration reducing contraction force (CF) to 75% of starting value
Procedure: The prolongation of the functional refractory period (FRP) and the contraction force (CF) in the isolated left atria of female guinea pigs (albinopirbright-white guinea pigs, body weight range 300-400 g) are determined according to the double stimulus method of Govier (see W. C. Govier, J. Pharmakol, Exp. Ther. 148 (1965) pp. 100-105). The concentrations which are given in the table below are the concentrations in […] which 18 minutes after application leads to a prolongation of the functional refractory period to 125% or respectively to a reduction of the contraction force to 75% of the starting value. Furthermore the ratio between contraction force-reducing dose and functional refractory period-prolonging dose is given. This ratio is an indication of the therapeutic range of the antiarrhythmic effect on the isolated organ (see K. Greef, Verh. Dtsch. Ges. Kreislaufforsch. 35 (1969) pp. 88-97).

[2] = acute toxicity (LD50) in mice; assay type: in vivo; conditions: mouse, in vivo, male NMRI-mice, mortality on 7th day
Procedure: The acute toxicity of the compounds is determined in male NMRI-mice (body weight range 18-22 g) after oral (p.o.) and intraperitonal (i.p.) administration. The LD50 is defined as that dose in μmol/kg which causes a 50% mortality rate of the test animals on the 7th day after application. The calculation of the LD50 is carried out by probitanalysis (see L. Cavalli-Sforza, Grundbegriffe der Biometric, Gustav Fischer Verlag Stuttgart (1964)).

Structure (SMILES)	Aconitin-Rat, ES (extrasystolic), Δ % [1]	Aconitin-Rat, KF (chamber flutter), Δ % [1]	Aconitin-Rat, VT (ventricular tachycardia), Δ % [1]	Min. Symptom-dose (male NMRI-mice)	ratio between contraction force-reducing dose and functional refractory period-prolonging dose (isolated left atria)	EC (FRP prolonged to 125%) (isolated left atria)	IC25 (isolated left atria)	LD50 at 168 h ([2]; ip, i.p., read-out: LD50 i.p.)	LD50 at 168 h ([2]; po, p.o., read-out: LD50 p.o.)
CCC1C2CC3C4N(C)c5ccc(Br)cc5C45CC(C2C5O)[N+]3(CCN2CCCC2)C1O (centres unmarked) [Example 8.b, Nb-(2-(1-pyrrolidinyl)ethyl)-10-bromoisoajmalinium bishydrogen tartrate]	+212%	+129%	> +149%	31 µmol/kg	2.3	0.9 µM	2 µM	115 µmol/kg	394 µmol/kg
CCC1C2CC3C4N(C)c5ccc(Br)cc5C45CC(C2C5O)[N+]3(CCN2CCCCC2)C1O (centres unmarked) [Example 9.b, Nb-(2-(1-piperidinyl)ethyl)-10-bromoisoajmalinium bishydrogen tartrate]	+151%	+95%	+52%	31 µmol/kg	0.7	2.3 µM	1.4 µM	60 µmol/kg	148 µmol/kg
CCC1C2CC3C4N(C)c5ccc(Br)cc5C45CC(C2C5O)[N+]3(CCN2CCOCC2)C1O (centres unmarked) [Example 10, Nb-[2-(4-morpholinyl)ethyl]-10-bromoisoajmalinium-chloride]	+67%	+43%	+69%	22 µmol/kg	12.9	0.2 µM	2.1 µM	45 µmol/kg	470 µmol/kg
CCC1C2CC3C4N(C)c5ccc(Br)cc5C45CC(C2C5O)[N+]3(C)C1O (centres unmarked) [Example 11.b, Nb-methyl-10-bromoisoajmalinium hydrogen tartrate]	+85%	+52%	+73%	88 µmol/kg	1.3	7.2 µM	9 µM	190 µmol/kg	1290 µmol/kg
CCC1C2CC3C4N(C)c5ccc(Br)cc5C45CC(C2C5O)[N+]3(CC)C1O (centres unmarked) [Example 12.b, Nb-ethyl-10-bromo-isoajmalinium hydrogen tartrate]	+52%	+39%	+55%	21 µmol/kg	0.9	1.5 µM	1.4 µM	122 µmol/kg	1430 µmol/kg
CCC[N+]12C(O)C(CC)C3CC1C1N(C)c4ccc(Br)cc4C14CC2C3C4O (centres unmarked) [Example 13.b, Nb-propyl-10-bromoisoajmalinium hydrogen tartrate]	+110%	+110%	+130%	42 µmol/kg	2.4	0.6 µM	1.5 µM	–	437 µmol/kg
